Data published in ChEMBL document CHEMBL2407021, “Unveiling the mode of action of antibacterial labdane diterpenes from Alpinia nigra (Gaertn.) B. L. Burtt seeds” (2013).
≈ marks a conversion by molar mass, not a printed value. Calls of active or inactive are those of the source. No cut-off for these calls is given here.

Tests used:
[1] = tested on: Escherichia coli; assay: Antibacterial activity against Escherichia coli ATCC 25922 after 18 hrs by microdilution method; format: functional; conditions: ATCC 25922, 18 h
[2] = tested on: Escherichia coli; assay: Antibacterial activity against enterotoxic Escherichia coli MTCC 723 after 18 hrs by microdilution method; format: functional; conditions: MTCC 723, 18 h
[3] = tested on: Staphylococcus aureus; assay: Induction of cell damage in Staphylococcus aureus ATCC 6538 assessed as increase in fluorescence intensity at MIC after 12 hrs using propidium iodide staining by flow cytometry analysis; format: functional
[4] = tested on: Staphylococcus aureus; assay: Antibacterial activity against Staphylococcus aureus ATCC 6538 after 24 hrs; format: functional; conditions: ATCC 6538, 24 h
[5] = tested on: Yersinia enterocolitica; assay: Induction of cell lysis in Yersinia enterocolitica MTCC 859 assessed as cell membrane damage at MIC by field emission scanning electron microscopy analysis; format: functional, organism-based
[6] = tested on: Listeria monocytogenes; assay: Antibacterial activity against Listeria monocytogenes ATCC 19115 after 24 hrs; format: functional; conditions: ATCC 19115, 24 h
[7] = tested on: Listeria monocytogenes; assay: Antibacterial activity against Listeria monocytogenes ATCC 19115 after 18 hrs by microdilution method; format: functional; conditions: ATCC 19115, 18 h
[8] = tested on: Staphylococcus aureus; assay: Induction of cell lysis in Staphylococcus aureus ATCC 6538 assessed as membrane disintegration and damage of cell wall at MIC by field emission scanning electron microscopy analysis; format: functional, organism-based
[9] = tested on: Escherichia coli; assay: Induction of cell damage in Escherichia coli ATCC 25922 assessed as increase in fluorescence intensity at MIC after 12 hrs using propidium iodide staining by flow cytometry analysis; format: functional
[10] = tested on: Staphylococcus aureus; assay: Antibacterial activity against Staphylococcus aureus ATCC 6538 after 18 hrs by microdilution method; format: functional; conditions: ATCC 6538, 18 h
[11] = tested on: Escherichia coli; assay: Antibacterial activity against Escherichia coli ATCC 25922 after 24 hrs; format: functional; conditions: ATCC 25922, 24 h
[12] = tested on: Salmonella paratyphi; assay: Antibacterial activity against Salmonella paratyphi A MTCC 735 after 24 hrs; format: functional, Salmonella enterica subsp. enterica serovar Paratyphi A; conditions: Salmonella enterica, MTCC 735, 24 h
[13] = tested on: Bacillus cereus; assay: Antibacterial activity against Bacillus cereus ATCC 11778 after 18 hrs by microdilution method; format: functional; conditions: ATCC 11778, 18 h
[14] = tested on: Escherichia coli; assay: Antibacterial activity against enterotoxic Escherichia coli MTCC 723 after 24 hrs; format: functional; conditions: MTCC 723, 24 h
[15] = tested on: Yersinia enterocolitica; assay: Antibacterial activity against Yersinia enterocolitica MTCC 859 after 18 hrs by microdilution method; format: functional; conditions: MTCC 859, 18 h
[16] = tested on: Staphylococcus aureus; assay: Induction of cell leakage in Staphylococcus aureus ATCC 6538 assessed as release of cellular materials at MIC after 8 to 16 hrs by UV/VIS spectrophotometer analysis; format: functional, organism-based
[17] = tested on: Yersinia enterocolitica; assay: Induction of cell damage in Yersinia enterocolitica MTCC 859 assessed as increase in fluorescence intensity at MIC after 12 hrs using propidium iodide staining by flow cytometry analysis; format: functional
[18] = tested on: Escherichia coli; assay: Induction of cell damage in enterotoxic Escherichia coli MTCC 723 assessed as increase in fluorescence intensity at MIC after 12 hrs using propidium iodide staining by flow cytometry analysis; format: functional
[19] = tested on: Salmonella paratyphi; assay: Induction of cell damage in Salmonella paratyphi A MTCC 735 assessed as increase in fluorescence intensity at MIC after 12 hrs using propidium iodide staining by flow cytometry analysis; format: functional, Salmonella enterica subsp. enterica serovar Paratyphi A
[20] = tested on: Listeria monocytogenes; assay: Induction of cell damage in Listeria monocytogenes ATCC 19115 assessed as increase in fluorescence intensity at MIC after 12 hrs using propidium iodide staining by flow cytometry analysis; format: functional
[21] = tested on: Yersinia enterocolitica; assay: Antibacterial activity against Yersinia enterocolitica MTCC 859 after 24 hrs; format: functional; conditions: MTCC 859, 24 h
[22] = tested on: Yersinia enterocolitica; assay: Induction of cell leakage in Yersinia enterocolitica MTCC 859 assessed as release of cellular materials at MIC after 8 to 16 hrs by UV/VIS spectrophotometer analysis; format: functional, organism-based
[23] = tested on: Salmonella paratyphi; assay: Antibacterial activity against Salmonella paratyphi A MTCC 735 after 18 hrs by microdilution method; format: functional, Salmonella enterica subsp. enterica serovar Paratyphi A; conditions: Salmonella enterica, MTCC 735, 18 h
[24] = tested on: Bacillus cereus; assay: Antibacterial activity against Bacillus cereus ATCC 11778 after 24 hrs; format: functional; conditions: ATCC 11778, 24 h
[25] = tested on: Bacillus cereus; assay: Induction of cell damage in Bacillus cereus ATCC 11778 assessed as increase in fluorescence intensity at MIC after 12 hrs using propidium iodide staining by flow cytometry analysis; format: functional

Row | Compound | MIC [1] | MIC [2] | RFU [3] | MBC [4] | Activity [5] | MBC [6] | MIC [7] | Activity [8] | RFU [9] | MIC [10] | MBC [11] | MBC [12] | MIC [13] | MBC [14] | MIC [15] | Activity [16] | RFU [17] | RFU [18] | RFU [19] | RFU [20] | further results
1 | C=C1CC[C@H]2C(C)(C)CCC[C@]2(C)[C@H]1C/C=C(/C=O)CC=O | 25 µg/mL (≈ 82.7 µM) | 25 µg/mL (≈ 82.7 µM) | 114 | 25 µg/mL (≈ 82.7 µM) | Active | 25 µg/mL (≈ 82.7 µM) | 25 µg/mL (≈ 82.7 µM) | Active | 146 | 12.5 µg/mL (≈ 41.3 µM) | 50 µg/mL (≈ 165 µM) | 12.5 µg/mL (≈ 41.3 µM) | 12.5 µg/mL (≈ 41.3 µM) | 25 µg/mL (≈ 82.7 µM) | 12.5 µg/mL (≈ 41.3 µM) | Active | 80.7 | 139 | 78.5 | 70.9 | MBC [21]: 25 µg/mL (≈ 82.7 µM); Activity [22]: Active; MIC [23]: 12.5 µg/mL (≈ 41.3 µM); MBC [24]: 12.5 µg/mL (≈ 41.3 µM); RFU [25]: 117
2 | CC1(C)CCC[C@@]2(C)[C@H]1CC[C@@]1(CO1)[C@@H]2C/C=C(/C=O)CC=O [AFRAMODIAL] | 12.5 µg/mL (≈ 39.3 µM) | 6.75 µg/mL (≈ 21.2 µM) | 119 | 6.75 µg/mL (≈ 21.2 µM) | Active | 12.5 µg/mL (≈ 39.3 µM) | 12.5 µg/mL (≈ 39.3 µM) | Active | 187 | 3.38 µg/mL (≈ 10.6 µM) | 12.5 µg/mL (≈ 39.3 µM) | 12.5 µg/mL (≈ 39.3 µM) | 6.75 µg/mL (≈ 21.2 µM) | 6.75 µg/mL (≈ 21.2 µM) | 3.38 µg/mL (≈ 10.6 µM) | Active | 117 | 153 | 87.6 | 89.9 | MBC [21]: 3.38 µg/mL (≈ 10.6 µM); Activity [22]: Active; MIC [23]: 6.75 µg/mL (≈ 21.2 µM); MBC [24]: 6.75 µg/mL (≈ 21.2 µM); RFU [25]: 118
